Among the data in ChEMBL document CHEMBL6114962, “Nucleoside antiviral agents with atypical structures and new targets” (Bioorg Med Chem Lett, 2025) are CC50, EC50 and IC50 values, retold here.

Series [1] can be described thus: Cytotoxicity against African green monkey Vero E6 cells assessed as reduction in cell viability by Cell titer-Glo luminescent assay. The format is toxicity, cell-based. To be noted: chlorocebus sabaeus.
The subject of series [2] is Human alphaherpesvirus 3. The series is described as follows: Antiviral activity against Varicella zoster virus infected in human HEL cells assessed as inhibition of plaque formation measured for 3 days. The format is functional, organism-based. To be noted: Human alphaherpesvirus 3, HEL, 72 h.
The test system of series [3] is SARS-CoV. In words: Antiviral activity against SARS-CoV Urbani infected in Vero E6 cells at 0.01 to 0.025 MOI assessed as inhibition of virus induced cytopathic effect. The format is functional, organism-based. To be noted: Severe acute respiratory syndrome-related coronavirus, Vero C1008.
Series [4] is described as follows: Cytotoxicity against African green monkey Vero E6 cells assessed as reduction in cell viability by neutral red uptake assay. The format is toxicity, cell-based, Vero C1008. To be noted: chlorocebus sabaeus.
The subject of another series is Ebolavirus. In words: Antiviral activity against Ebola virus infected in Vero E6 cells assessed as virus-induced cytopathic effect incubated for 3 days by CPE assay. The class given is functional, organism-based. To be noted: Orthoebolavirus, Vero C1008, 72 h.
A short description of series [5]: Cytotoxicity against African green monkey Vero E6 cells assessed as reduction in cell growth. The format is toxicity, cell-based. The following applies: chlorocebus sabaeus.
The subject of the next series is Human coronavirus OC43. In words: Antiviral activity against Human coronavirus OC43 infected in Vero cells assessed as reduction in viral replication pre-incubated with virus for 1 hr followed by washout and compound treatment and measured after 3 days by qRT-PCR analysis. The class given is functional, organism-based. The following applies: Betacoronavirus 1, Vero.

The nature of series [6]: Cytotoxicity against African green monkey Vero cells. The class given is toxicity, cell-based. To be noted: chlorocebus sabaeus.
The target of series [7] is Histone-lysine N-methyltransferase SETD2 (Homo sapiens, UniProt Q9BYW2). In words: Inhibition of human recombinant […] N-terminal His-tagged SETD2 (1347to1711 residues) extracted from Escherichia coli BL21 (DE3) using biotin-tagged Histone H3 and 3H-SAM as substrate incubated for 1 hr by TopCount scintillation proximity assay.
Series [8] in a line: Cytotoxicity against human HEL cells. The format is toxicity, cell-based.
The subject of series [9] is Human alphaherpesvirus 3. In words: Antiviral activity against Varicella zoster virus infected in human HEL cells assessed as reduction in plaque formation incubated for 72 hrs. The format is functional, organism-based. The following applies: Human alphaherpesvirus 3, HEL.
The subject of the next series is Human betaherpesvirus 5. The series is described as follows: Antiviral activity against HCMV. The format is functional, organism-based.
Series [10] relates to SARS-CoV. In words: Antiviral activity against SARS-CoV HKU39849 infected in Vero E6 cells assessed as reduction in viral replication. The class given is functional, organism-based. To be noted: Severe acute respiratory syndrome-related coronavirus, HKU39849, Vero C1008.
Series [11] can be described thus: Cytotoxicity against African green monkey Vero E6 cells assessed as reduction in cell viability measured after 72 hrs by WST-1 assay. The following applies: chlorocebus sabaeus. The class given is toxicity, cell-based, Vero C1008.
Series [12] concerns SARS-CoV. The series is described as follows: Antiviral activity against SARS-CoV Frankfurt-1 infected in Vero E6 cells assessed as reduction in viral replication. The following applies: Severe acute respiratory syndrome-related coronavirus, Frankfurt-1, Vero C1008. The format is functional, organism-based.
The next series relates to HEL. In words: Cytotoxicity against human HEL cells assessed as reduction in cell viability incubated for 24 hrs by MTT assay. The format is functional.
The subject of series [13] is Human alphaherpesvirus 3. In words: Antiviral activity against Varicella zoster virus infected in human HEL cells assessed as reduction in plaque formation. The class given is functional, organism-based. The following applies: Human alphaherpesvirus 3, HEL.
The next series has as its system HMEC-1. In words: Cytotoxicity against human HMEC-1 cells assessed as reduction in cell growth incubated for 24 hrs. The class given is functional.
Another series relates to Human alphaherpesvirus 2. The series is described as follows: Antiviral activity against HSV-2. The class given is functional, organism-based.
The nature of series [14]: Cytotoxicity against human HEL 299 cells. The format is toxicity, cell-based.
The next series deals with Human alphaherpesvirus 1. The series is described as follows: Antiviral activity against HSV-1. The format is functional, organism-based.

≈ marks a conversion by molar mass, not a printed value.

Sequence of Histone-lysine N-methyltransferase SETD2 (Q9BYW2 whole entry, the tested form may be a part): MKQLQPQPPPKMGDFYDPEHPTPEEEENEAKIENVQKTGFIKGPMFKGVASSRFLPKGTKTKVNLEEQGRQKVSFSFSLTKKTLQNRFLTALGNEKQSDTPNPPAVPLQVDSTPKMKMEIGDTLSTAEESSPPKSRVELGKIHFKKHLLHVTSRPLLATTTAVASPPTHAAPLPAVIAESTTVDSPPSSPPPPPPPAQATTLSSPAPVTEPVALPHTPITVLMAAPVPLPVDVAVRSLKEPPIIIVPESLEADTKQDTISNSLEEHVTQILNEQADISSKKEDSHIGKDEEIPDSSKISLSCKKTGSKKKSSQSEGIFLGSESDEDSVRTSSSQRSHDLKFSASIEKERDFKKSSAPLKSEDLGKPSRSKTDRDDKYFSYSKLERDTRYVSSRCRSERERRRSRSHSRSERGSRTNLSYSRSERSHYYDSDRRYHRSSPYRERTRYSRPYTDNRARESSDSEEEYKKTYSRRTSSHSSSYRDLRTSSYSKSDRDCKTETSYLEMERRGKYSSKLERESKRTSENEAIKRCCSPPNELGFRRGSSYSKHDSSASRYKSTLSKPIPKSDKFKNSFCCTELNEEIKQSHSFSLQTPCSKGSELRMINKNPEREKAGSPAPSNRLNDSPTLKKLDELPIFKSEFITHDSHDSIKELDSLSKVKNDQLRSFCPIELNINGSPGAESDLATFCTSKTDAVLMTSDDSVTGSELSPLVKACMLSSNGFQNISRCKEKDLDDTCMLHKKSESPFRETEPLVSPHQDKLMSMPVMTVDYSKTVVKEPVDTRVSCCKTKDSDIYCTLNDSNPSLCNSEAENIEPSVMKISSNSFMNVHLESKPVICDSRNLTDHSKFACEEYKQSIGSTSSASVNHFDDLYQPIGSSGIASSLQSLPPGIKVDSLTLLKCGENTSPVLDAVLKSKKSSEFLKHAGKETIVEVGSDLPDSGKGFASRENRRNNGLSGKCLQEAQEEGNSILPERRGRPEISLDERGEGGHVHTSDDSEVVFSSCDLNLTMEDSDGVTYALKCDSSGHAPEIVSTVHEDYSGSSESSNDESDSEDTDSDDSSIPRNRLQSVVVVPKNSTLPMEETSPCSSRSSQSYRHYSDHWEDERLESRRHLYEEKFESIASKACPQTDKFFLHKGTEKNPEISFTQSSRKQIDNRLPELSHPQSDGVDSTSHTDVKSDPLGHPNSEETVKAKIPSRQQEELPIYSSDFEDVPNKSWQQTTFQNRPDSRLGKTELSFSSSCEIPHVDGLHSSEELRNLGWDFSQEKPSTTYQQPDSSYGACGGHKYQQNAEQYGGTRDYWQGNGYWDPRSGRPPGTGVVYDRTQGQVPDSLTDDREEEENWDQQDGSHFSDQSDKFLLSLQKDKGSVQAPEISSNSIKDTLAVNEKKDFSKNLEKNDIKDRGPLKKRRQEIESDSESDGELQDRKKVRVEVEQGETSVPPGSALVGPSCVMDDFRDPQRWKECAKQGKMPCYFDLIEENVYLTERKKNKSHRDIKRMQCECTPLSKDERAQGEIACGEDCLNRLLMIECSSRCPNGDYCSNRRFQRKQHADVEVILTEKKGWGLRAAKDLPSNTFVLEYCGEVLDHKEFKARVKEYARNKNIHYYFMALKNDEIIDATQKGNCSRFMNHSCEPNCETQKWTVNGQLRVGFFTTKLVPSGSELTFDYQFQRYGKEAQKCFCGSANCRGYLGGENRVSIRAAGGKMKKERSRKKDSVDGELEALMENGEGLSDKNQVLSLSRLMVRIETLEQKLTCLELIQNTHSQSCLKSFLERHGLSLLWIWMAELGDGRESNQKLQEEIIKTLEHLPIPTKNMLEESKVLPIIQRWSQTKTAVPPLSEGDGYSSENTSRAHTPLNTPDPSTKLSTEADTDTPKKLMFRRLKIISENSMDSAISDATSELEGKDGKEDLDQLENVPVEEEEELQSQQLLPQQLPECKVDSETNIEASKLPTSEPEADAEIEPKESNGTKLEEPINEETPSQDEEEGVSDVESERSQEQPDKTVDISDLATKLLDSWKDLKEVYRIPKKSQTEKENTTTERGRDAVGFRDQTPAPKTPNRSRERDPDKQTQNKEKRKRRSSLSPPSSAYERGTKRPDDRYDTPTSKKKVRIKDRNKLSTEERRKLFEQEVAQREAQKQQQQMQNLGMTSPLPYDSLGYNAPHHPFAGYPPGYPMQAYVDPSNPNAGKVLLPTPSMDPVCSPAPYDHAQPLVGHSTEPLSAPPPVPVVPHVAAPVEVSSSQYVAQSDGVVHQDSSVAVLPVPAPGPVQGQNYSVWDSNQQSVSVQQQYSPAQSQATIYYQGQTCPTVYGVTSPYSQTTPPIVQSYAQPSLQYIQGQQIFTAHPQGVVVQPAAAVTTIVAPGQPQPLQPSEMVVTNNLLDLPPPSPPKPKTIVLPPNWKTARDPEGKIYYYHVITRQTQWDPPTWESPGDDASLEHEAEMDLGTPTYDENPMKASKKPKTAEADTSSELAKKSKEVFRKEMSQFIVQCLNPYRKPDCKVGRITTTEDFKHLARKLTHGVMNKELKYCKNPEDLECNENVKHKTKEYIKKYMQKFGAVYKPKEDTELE

With `CC(C)Nc1nc2cc(Cl)c(Cl)cc2n1[C@H]1O[C@@H](CO)[C@H](O)[C@@H]1O` [MARIBAVIR], the CC50 in series [1] was more than 100 µM.
Take `O=c1c2ccccc2n(Cc2cn(CCCOCc3ccccc3)nn2)c(=O)n1Cc1ccccc1`: the EC50 in the series on Human alphaherpesvirus 3 [2] was more than 20 µM.
For the molecule `COc1c(C)c2c(c(O)c1C/C=C(\C)CCC(=O)O)C(=O)OC2` [MYCOPHENOLIC ACID], in the series with SARS-CoV [3], the EC50 is more than 30 µM. Moreover, in series [4], the CC50 was more than 30 µM.
For the molecule `Nc1nccc2c1ncn2[C@@H]1C=C(CO)[C@@H](O)[C@H]1O`, in the series with Ebolavirus, the concentration for a half-maximal effect (EC50) worked out at 30 µM. For the same molecule, the CC50 in series [5] is more than 100 µM.
`NC(=O)c1cc([C@@H]2O[C@H](CO)[C@@H](O)[C@H]2O)n2nc(CF)nc(N)c12`: in the series with Human coronavirus OC43, the EC50 worked out at 1.3 µM. In series [6], this molecule registered a CC50 of 45 µM.
For the molecule `Nc1ncnc2c1ncn2[C@@H]1O[C@H](C[C@@H](N)CC[C@H](N)C(=O)O)[C@@H](O)[C@H]1O` [SINEFUNGIN], the IC50 in [7] was determined as 28.4 µM.
In series [8], `O=c1nc2oc(CCCCCCCCCCl)cc2cn1[C@H]1C[C@H](O)[C@@H](CO)O1` showed a CC50 of 200 µM. Further, the concentration giving a half-maximal response (EC50) in the series on Human alphaherpesvirus 3 [9] was 0.012 µM.
For the molecule `C#Cc1c(C(N)=O)ncn1[C@@H]1O[C@H](CO)[C@@H](O)[C@H]1O`, the concentration for a half-maximal effect (EC50) with SARS-CoV [3] was more than 40 µM. Besides, the CC50 in series [4] is more than 40 µM.
`O[C@@H]1[C@H](O)[C@H](O)CO[C@H]1Cn1c(Br)nc2cc(Cl)c(Cl)cc21` gave an EC50 in the series with Human betaherpesvirus 5 of 1.4 µM.
On to `NC(=O)c1ncn([C@@H]2O[C@H](CO)[C@@H](O)[C@H]2O)n1` [RIBAVIRIN], for which the EC50 in the series with SARS-CoV [10] is 80 µg/mL (≈ 328 µM); with SARS-CoV [12] it was 20 µg/mL (≈ 81.9 µM). Moreover, the CC50 at 72 h in series [11] is more than 200 µg/mL.
On to `CC(C)=CCNc1ncnc2c1ncn2[C@@H]1O[C@H](CO)[C@@H](O)[C@H]1O` [RIBOPRINE], for which the CC50 in [1] was more than 100 µM.
As for `NC(=O)c1ncn([C@@H]2O[C@H](CO)[C@@H](O)[C@H]2O)c1O` [MIZORIBINE], the EC50 in the series on SARS-CoV [10] was found to be 16 µg/mL (≈ 61.7 µM); in the series on SARS-CoV [12], 3.5 µg/mL (≈ 13.5 µM). Moreover, the CC50 at 72 h in series [11] was more than 200 µg/mL.
As to `COc1ccc(C(OC[C@H]2O[C@@H](n3cc4c(nc3=O)Nc3ccccc3O4)[C@H](O)[C@@H]2O)(c2ccccc2)c2ccc(OC)cc2)cc1`, the CC50 in the series with HEL stood at 9.7 µM. Further, the EC50 with Human alphaherpesvirus 3 [13] came out at 2.7 µM.
In the case of `O=c1nc2oc(CCCCCCCCCI)cc2cn1[C@H]1C[C@H](O)[C@@H](CO)O1`, the CC50 in series [8] was more than 200 µM. For the same molecule, in the series on Human alphaherpesvirus 3 [9], the EC50 turned out to be 0.034 µM.
For `O=c1c2ccccc2n(Cc2cn(CCCOCc3ccccc3)nn2)c(=O)n1Cc1ccc(F)cc1`, the EC50 in the series on Human alphaherpesvirus 3 [2] came out at 12.3 µM.
For `C#CCn1c(=O)n(C(=O)c2ccccc2F)c(=O)c2ccccc21`, in the series on HMEC-1, the cytotoxic concentration (CC50) is more than 100 µM. Further, the EC50 with Human alphaherpesvirus 3 [2] came to 2.8 µM.
Regarding `C#CCn1c(=O)n(C(=O)c2ccccc2)c(=O)c2ccccc21`, the CC50 with HMEC-1 amounted to 11.2 µM. The EC50 with Human alphaherpesvirus 3 [2] is 5.4 µM.
For the molecule `Cc1nc(N)c2c(C(N)=O)cc([C@@H]3O[C@H](CO)[C@@H](O)[C@H]3O)n2n1`, the EC50 in the series with Human coronavirus OC43 is 0.65 µM. Further, half-maximal cytotoxicity in series [6] (CC50) was put at 45 µM.
Consider `Nc1nc2c(ncn2C[Se]CCO)c(=O)[nH]1`, for which the values for the EC50 in the series with Human alphaherpesvirus 2 and with Human alphaherpesvirus 1 were 6.34 µM and 1.47 µM, respectively. In addition, the CC50 in series [14] was more than 100 µM.
As to `O=c1nc2oc(CCCCCCCCCBr)cc2cn1[C@H]1C[C@H](O)[C@@H](CO)O1`, the CC50 in [8] was more than 50 µM. The EC50 in the series on Human alphaherpesvirus 3 [9] came out at 0.031 µM.
For `COc1nc(N)nc2c1ncn2[C@@H]1O[C@H](CO)[C@@H](O)[C@@H]1O` [NELARABINE], the CC50 in series [1] is more than 100 µM.
